Source: PMC9184463, “Structural basis of ligand binding modes of human EAAT2” (Nature Communications, 2022)

Key:
hEAAT2 = conditions: ref PMID: 7521911; cited from earlier work
hEAAT3 = system: hEAAT3; set-up: method as in PMID: 7521911; conditions: ref PMID: 7521911; cited from earlier work
hEAAT1 = conditions: ref PMID: 7521911; cited from earlier work
hEAAT2 mutant R478A = target: T1, hEAAT2 mutant R478A (Homo sapiens, UniProt P43004, R478A); experiment: whole-cell patch-clamp, hEAAT2 mutant R478A in HEK293T cells; type: cell-based
T1 construct: Strep Tag II (N); superfolder GFP (sfGFP) (N); expressed in transfected cells; host or cells: HEK293T
Protocol: (§1) Human embryonic kidney 293T (HEK293T) cells were cultured in Dulbecco’s Modified Eagle Medium (DMEM, Gibco) media supplemented with 15% (v/v) fetal bovine serum (FBS, PAN-Biotech) at 37 °C with 5% CO2. HEK293T cells were grown in the culture dishes (d = 3.5 cm) (Thermo Fisher Scientific) for 24 h and then 1 μg hEAAT2 wild-type and mutant plasmids for per dishes were used to transiently transfect HEK293T using 0.7 μg Lipofectamine 2000 Reagent (Thermo Fisher Scientific). Cells were analyzed using electrophysiological experiments between 24 and 40 h after transfection at room temperature (21–25 °C).
(§2) Electrophysiological experiments were performed as described previously with a minor modification. External buffer contained 140 mM NaCl, 2 mM MgCl2, 2 mM CaCl2, and 10 mM HEPES (pH = 7.4 with NaOH and osmolarity of ∼310 mosmol L^−1) and while internal pipette solution comprised of 130 mM NaSCN, 2 mM MgCl2, 10 mM EGTA, 10 mM HEPES (pH = 7.4 with NaOH and osmolarity of ∼310 mosmol L^−1) and 10 mM glutamate. 50 mM WAY-213613 stock solutions were prepared in dimethyl sulfoxide (DMSO), followed by dilutions to working concentrations with the above-mentioned external buffer. […] Whole cell patch-clamp experiment recordings were made from isolated GFP-positive HEK293T cells (hEAAT2 wild type and mutants). In all, 3–6 MΩ was used to fire a polished pipette (Sutter Instrument). […] Cells were immersed in the above-mentioned external buffer supplemented with a specified concentration of glutamate or WAY-213613. Glutamate-induced anion current, Na^+-dependent anion leak current and glutamate transport current or WAY-213613 inhibited anion leak currents were recorded using an EPC-10 amplifier (HEKA Electronic) at a 20 kHz sample rate with low pass filter at 5 kHz. All experiments were executed at 0 mV. After the cell current was stabilized, glutamate or WAY-213613 was sustained at the indicated concentrations from external dosing for at least 6 s. Subsequently, the cell was washed away with external buffer to start a new round of applications or end the experiment. The plateau currents were used for the following calculations. For analysis, the data was acquired by PatchMaster program (HEKA Electronic) at 5 s after recording. Nonlinear dose–response relationships were fitted into a Michaelis–Menten-like equation shown as below to obtain the apparent Km and Ki values in the presence of glutamate or WAY-213613.1 I/Imax=Km/i/C+Km/i In this equation, I represent the current at different glutamate or inhibitor concentrations, and Imax represents the maximal current at the saturating concentration of glutamate or inhibitor. [C] represents the concentration of glutamate or inhibitor. Km/i represents the apparent constant.

hEAAT2 mutant S441G = target: T2, hEAAT2 mutant S441G (Homo sapiens, UniProt P43004, S441G); experiment: whole-cell patch-clamp, hEAAT2 mutant S441G in HEK293T cells; type: cell-based; conditions: 0 mV; for glutamate-induced current, normalized (MEAN): S441G, normalized to maximal current
T2 construct: Strep Tag II (N); superfolder GFP (sfGFP) (N); expressed in transfected cells; host or cells: HEK293T
Protocol: as §1, §2

hEAAT2 mutant I464V = target: T3, hEAAT2 mutant I464V (Homo sapiens, UniProt P43004, I464V); experiment: whole-cell patch-clamp, hEAAT2 mutant I464V in HEK293T cells; type: cell-based; conditions: for glutamate-induced current, normalized (MEAN): I464V, 0 mV
T3 construct: Strep Tag II (N); superfolder GFP (sfGFP) (N); expressed in transfected cells; host or cells: HEK293T
Protocol: as §1, §2

hEAAT2 mutant D475A = target: T4, hEAAT2 mutant D475A (Homo sapiens, UniProt P43004, D475A); experiment: whole-cell patch-clamp, hEAAT2 mutant D475A in HEK293T cells; type: cell-based
T4 construct: Strep Tag II (N); superfolder GFP (sfGFP) (N); expressed in transfected cells; host or cells: HEK293T
Protocol: as §1, §2

wild-type hEAAT2 = target: T5, wild-type hEAAT2 (Homo sapiens, UniProt P43004); experiment: whole-cell patch-clamp of hEAAT2-associated anion current, wild-type hEAAT2 in HEK293T cells; type: cell-based
T5 construct: Strep Tag II (N); superfolder GFP (sfGFP) (N); expressed in transfected cells; host or cells: HEK293T
Protocol: as §1, §2

hEAAT2 mutant L467I = target: T6, hEAAT2 mutant L467I (Homo sapiens, UniProt P43004, L467I); experiment: whole-cell patch-clamp, hEAAT2 mutant L467I in HEK293T cells; type: cell-based; conditions: for glutamate-induced current, normalized (MEAN): L467I, 0 mV
T6 construct: Strep Tag II (N); superfolder GFP (sfGFP) (N); expressed in transfected cells; host or cells: HEK293T
Protocol: as §1, §2

hEAAT2 mutant V468I = target: T7, hEAAT2 mutant V468I (Homo sapiens, UniProt P43004, V468I); experiment: whole-cell patch-clamp, hEAAT2 mutant V468I in HEK293T cells; type: cell-based; conditions: for glutamate-induced current, normalized (MEAN): V468I, 0 mV
T7 construct: Strep Tag II (N); superfolder GFP (sfGFP) (N); expressed in transfected cells; host or cells: HEK293T
Protocol: as §1, §2

[1] = 3 μM glutamate, normalized to current at 1000 μM
[2] = 10 μM glutamate, normalized to current at 1000 μM
[3] = 30 μM glutamate, normalized to current at 1000 μM
[4] = 100 μM glutamate, normalized to current at 1000 μM
[5] = 300 μM glutamate, normalized to current at 1000 μM
[6] = 1000 μM glutamate, normalization reference

T3 sequence (P43004 whole entry I464V): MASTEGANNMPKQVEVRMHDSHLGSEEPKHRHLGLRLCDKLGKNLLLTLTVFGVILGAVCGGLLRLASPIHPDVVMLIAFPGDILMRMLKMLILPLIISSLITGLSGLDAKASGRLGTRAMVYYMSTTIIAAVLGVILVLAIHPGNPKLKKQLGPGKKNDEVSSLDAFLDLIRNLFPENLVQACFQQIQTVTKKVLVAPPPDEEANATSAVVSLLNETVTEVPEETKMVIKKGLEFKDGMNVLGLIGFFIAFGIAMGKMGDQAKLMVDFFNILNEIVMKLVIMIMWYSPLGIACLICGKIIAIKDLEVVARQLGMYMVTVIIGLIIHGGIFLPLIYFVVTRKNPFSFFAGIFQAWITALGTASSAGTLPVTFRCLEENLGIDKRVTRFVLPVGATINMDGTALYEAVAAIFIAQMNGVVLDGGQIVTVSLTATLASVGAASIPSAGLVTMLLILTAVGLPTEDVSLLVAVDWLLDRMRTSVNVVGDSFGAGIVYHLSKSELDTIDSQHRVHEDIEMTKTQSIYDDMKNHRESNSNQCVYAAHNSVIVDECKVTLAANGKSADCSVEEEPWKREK
T4 sequence (P43004 whole entry D475A): as the sequence (P43004 whole entry I464V) above, with V464I, D475A counted along it
T6 sequence (P43004 whole entry L467I): as the sequence (P43004 whole entry I464V) above, with V464I, L467I counted along it
T1 sequence (P43004 whole entry R478A): as the sequence (P43004 whole entry I464V) above, with V464I, R478A counted along it
T5 sequence (P43004 whole entry, the tested form may be a part): as the sequence (P43004 whole entry I464V) above, with V464I counted along it
T7 sequence (P43004 whole entry V468I): as the sequence (P43004 whole entry I464V) above, with V464I, V468I counted along it
T2 sequence (P43004 whole entry S441G): as the sequence (P43004 whole entry I464V) above, with S441G, V464I counted along it

N[C@@H](CC(=O)O)C(=O)O [aspartate]
Km (hEAAT2): 54 µM
Km (hEAAT3): 47 µM
Km (hEAAT1): 60 µM

N[C@@H](CCC(=O)O)C(=O)O [glutamate]
glutamate-related current density (MEAN) (hEAAT2 mutant R478A; 1mM Glutamate, R478A, 0 mV, Na+ dependent leak current subtracted): 0.4954 pA/pF
activation of anion currents (hEAAT2 mutant R478A; R478A mutant, glutamate up to 1 mM): failed to activate anion currents
glutamate-induced current, normalized (MEAN) (hEAAT2 mutant S441G; 0.1 μM glutamate): 0.1494
glutamate-induced current, normalized (MEAN) (hEAAT2 mutant S441G; 0.3 μM glutamate): 0.4931
glutamate-induced current, normalized (MEAN) (hEAAT2 mutant S441G; 1 μM glutamate): 0.73
glutamate-induced current, normalized (MEAN) (hEAAT2 mutant S441G; 3 μM glutamate): 0.9123
glutamate-induced current, normalized (MEAN) (hEAAT2 mutant S441G; 10 μM glutamate): 1
glutamate-induced current, normalized (MEAN) (hEAAT2 mutant S441G; 30 μM glutamate): 1.038
Km (hEAAT2 mutant S441G; S441G mutant, read-out: apparent Km): 0.4 ± 0.03 µM
Km (hEAAT2): 97 µM
glutamate-induced current, normalized (MEAN) (hEAAT2 mutant I464V; [1]): 0.1004
glutamate-induced current, normalized (MEAN) (hEAAT2 mutant I464V; [2]): 0.2675
glutamate-induced current, normalized (MEAN) (hEAAT2 mutant I464V; [3]): 0.5257
glutamate-induced current, normalized (MEAN) (hEAAT2 mutant I464V; [4]): 0.7538
glutamate-induced current, normalized (MEAN) (hEAAT2 mutant I464V; [5]): 0.9218
glutamate-induced current, normalized (MEAN) (hEAAT2 mutant I464V; [6]): 1
activation of anion current (hEAAT2 mutant I464V; I464V mutant, glutamate in external solution): significantly activate anion current with similar efficacy as that of wild-type hEAAT2
Km (hEAAT3): 62 µM
Km (hEAAT1): 48 µM
glutamate-related current density (MEAN) (hEAAT2 mutant D475A; 1mM Glutamate, D475A, 0 mV, Na+ dependent leak current subtracted): 1.113 pA/pF
activation of anion currents (hEAAT2 mutant D475A; D475A mutant, glutamate up to 1 mM): failed to activate anion currents
glutamate-induced current, normalized (MEAN) (wild-type hEAAT2; 3 μM glutamate, WT, 0 mV, normalized to current at 1000 μM glutamate): 0.1101
glutamate-induced current, normalized (MEAN) (wild-type hEAAT2; 10 μM glutamate, WT, 0 mV, normalized to current at 1000 μM glutamate): 0.2265
glutamate-induced current, normalized (MEAN) (wild-type hEAAT2; 30 μM glutamate, WT, 0 mV, normalized to current at 1000 μM glutamate): 0.5388
glutamate-induced current, normalized (MEAN) (wild-type hEAAT2; 100 μM glutamate, WT, 0 mV, normalized to current at 1000 μM glutamate): 0.751
glutamate-induced current, normalized (MEAN) (wild-type hEAAT2; 300 μM glutamate, WT, 0 mV, normalized to current at 1000 μM glutamate): 0.9307
glutamate-related current density (MEAN) (wild-type hEAAT2; 1mM Glutamate, WT, 0 mV, Na+ dependent leak current subtracted): -27.6784 pA/pF
glutamate-induced current, normalized (MEAN) (wild-type hEAAT2; 1000 μM glutamate, WT, 0 mV, normalization reference): 1
effect of substrate on anion leak currents (wild-type hEAAT2; wild-type hEAAT2): increased the amplitudes of anion leak currents
Km (wild-type hEAAT2; wild-type hEAAT2, HEK293T, 0 mV, Michaelis-Menten-like fit, read-out: apparent Km (activation of anion current)): 30 ± 2.5 µM
glutamate-induced current, normalized (MEAN) (hEAAT2 mutant L467I; [1]): 0.09492
glutamate-induced current, normalized (MEAN) (hEAAT2 mutant L467I; [2]): 0.2532
glutamate-induced current, normalized (MEAN) (hEAAT2 mutant L467I; [3]): 0.5328
glutamate-induced current, normalized (MEAN) (hEAAT2 mutant L467I; [4]): 0.7948
glutamate-induced current, normalized (MEAN) (hEAAT2 mutant L467I; [5]): 0.9242
glutamate-induced current, normalized (MEAN) (hEAAT2 mutant L467I; [6]): 1
activation of anion current (hEAAT2 mutant L467I; L467I mutant, glutamate in external solution): significantly activate anion current with similar efficacy as that of wild-type hEAAT2
glutamate-induced current, normalized (MEAN) (hEAAT2 mutant V468I; [1]): 0.1059
glutamate-induced current, normalized (MEAN) (hEAAT2 mutant V468I; [2]): 0.2526
glutamate-induced current, normalized (MEAN) (hEAAT2 mutant V468I; [3]): 0.5136
glutamate-induced current, normalized (MEAN) (hEAAT2 mutant V468I; [4]): 0.8108
glutamate-induced current, normalized (MEAN) (hEAAT2 mutant V468I; [5]): 0.9282
glutamate-induced current, normalized (MEAN) (hEAAT2 mutant V468I; [6]): 1
activation of anion current (hEAAT2 mutant V468I; V468I mutant, glutamate in external solution): significantly activate anion current with similar efficacy as that of wild-type hEAAT2
